Literature values, collected in publication PMC2677997 (Bioorganic & medicinal chemistry, 2009).

System: SNARE cleavage in neuronal cells
Details: cited from earlier work

O=C(/C=C/c1ccc(Cl)cc1Cl)NO [Compound 2, 2,4-dichlorocinnamic hydroxamic acid]
activity in a cellular assay: inactive or cytotoxic
